According to patent US10328060B2, “Certain protein kinase inhibitors” (Shanghai Fochon Pharmaceutical Co., Ltd., priority 2014, dated 2019):

How the values were obtained:
SU-DHL-6 cell = SU-DHL-6 cell proliferation assay (MTS); type: cell-based; conditions: SU-DHL-6 cells, 48 h
Description: To investigate whether a compound is able to inhibit the activity of PI3K in cells, a mechanism-based assay using SU-DHL-6 cell (ATCC number: CRL 2959) was developed. In this assay, inhibition of PI3K-6 was detected by the inhibition of SUDHL-6 cells proliferation. SU-DHL-6 cells were cultured in culture flasks to 40-80% confluence in RPMI-1640 plus 10% fetal bovine serum. Cells were collected and plated onto 96-well-plates at 30000/well. Plates were incubated overnight at 37° C., with 5% CO2 to adhere. Compounds were added to the plates. Final compound concentrations were […], 123.5, 41.2, 13.7, 4.6 and 1.5 nM. Place plates at 37° C., with 5% CO2 for 48 h. After removing the medium, 20 μl MTS/100 μl medium mixture solution were added to each well and incubate the plates for exactly 2 hours. Stop the reaction by adding 25 μl 10% SDS per well. Measure absorbance at 490 nm and 650 nm (reference wavelength). IC50 was calculated using GraphPad Prism 5.0.

WSU-NHL = WSU-NHL cell viability assay (CellTiter-Glo); type: cell-based; conditions: WSU-NHL cells, 48 h
Description: The cancer cell line WSU-NHL (DSMZ number: ACC 58) was maintained in RPMI-1640 medium with 10% FBS, at 37° C. in an atmosphere of 5% CO2. The tumor cells were routinely sub-cultured twice weekly by trypsin-EDTA treatment. The cells growing in an exponential growth phase were harvested, counted, and planted in 96-well plated by 5000 cells/well. After 24 hours' culture, the series diluted test articles were added into wells, then return the assay plate into the incubator and continue culture for 48 h. At the ending point of incubation, the assay plates were detected by Promega CellTiter-Glo Luminescent Cell Viability Assay Kit (Promege 7572), and the luminescence record of each well was read by the 2104 EnVision plate reader. The data were interpreted by GraphPad Prism5 software.

SMILES | IC50 (SU-DHL-6 cell; Homo sapiens) | IC50 (WSU-NHL; Homo sapiens) | also measured
CCC(Nc1ncnc2[nH]cnc12)c1cc2scc(C)n2c(=O)c1-c1ccccc1 (centres unmarked) [Example 2, 7-(1-(9H-purin-6-ylamino)propyl)-3-methyl-6-phenyl-5H-thiazolo[3,2-a]pyridin-5-one] | 60 nM | – | –
CC(Nc1ncnc2[nH]cnc12)c1cc2ccccn2c(=O)c1-c1ccccc1 (centres unmarked) [Example 3, 2-(1-(9H-purin-6-ylamino)ethyl)-3-phenyl-4H-quinolizin-4-one] | 713 nM | – | –
Cc1csc2cc(C(C)Nc3ncnc4[nH]cnc34)c(-c3ccc(F)cc3)c(=O)n12 (centres unmarked) [Example 5, 7-(1-((9H-purin-6-yl)amino)ethyl)-6-(4-fluorophenyl)-3-methyl-5H-thiazolo[3,2-a]pyridin-5-one] | 72 nM | – | –
CCC(Nc1ncnc2[nH]cnc12)c1cc2scc(C)n2c(=O)c1-c1ccc(F)cc1 (centres unmarked) [Example 6, 7-(1-((9H-purin-6-yl)amino)propyl)-6-(4-fluorophenyl)-3-methyl-5H-thiazolo[3,2-a]pyridin-5-one] | 60 nM | – | –
Cc1csc2cc(C(C)Nc3ncnc4[nH]cnc34)c(-c3ccccc3F)c(=O)n12 (centres unmarked) [Example 7, 7-(1-((9H-purin-6-yl)amino)ethyl)-6-(2-fluorophenyl)-3-methyl-5H-thiazolo[3,2-a]pyridin-5-one] | 13 nM | – | –
Cc1csc2cc(C(C)Nc3ncnc4[nH]cnc34)c(-c3cccc(F)c3)c(=O)n12 (centres unmarked) [Example 8, 7-(1-((9H-purin-6-yl)amino)ethyl)-6-(3-fluorophenyl)-3-methyl-5H-thiazolo[3,2-a]pyridin-5-one] | 7.2 nM | – | –
CCC(Nc1ncnc2[nH]cnc12)c1cc2scc(C)n2c(=O)c1-c1ccccc1F (stereo not drawn) [Example 10, 7-(l-((9H-purin-6-yl)amino)propyl)-6-(2-fluorophenyl)-3-methyl-5H-thiazolo[3,2-a]pyridin-5-one] | 28 nM | – | –
CCC(Nc1ncnc2[nH]cnc12)c1cc2scc(C)n2c(=O)c1-c1cccc(F)c1 (centres unmarked) [Example 11, 7-(1((9H-purin-6-yl)amino)propyl)-6-(3-fluorophenyl)-3-methyl-5H-thiazolo[3,2-a]pyridin-5-one] | 12 nM | – | –
CC(Nc1ncnc2[nH]cnc12)c1cc2scc(Cl)n2c(=O)c1-c1cccc(F)c1 (centres unmarked) [Example 12, 7-(1-((9H-purin-6-yl)amino)ethyl)-3-chloro-6-(3-fluorophenyl)-5H-thiazolo[3,2-a]pyridin-5-one] | 2.7 nM | 24 nM | –
CCC(Nc1ncnc2[nH]cnc12)c1cc2scc(Cl)n2c(=O)c1-c1cccc(F)c1 (centres unmarked) [Example 13, 7-(1-((9H-purin-6-yl)amino)propyl)-3-chloro-6-(3-fluorophenyl)-5H-thiazolo[3,2-a]pyridin-5-one] | 7.5 nM | 36 nM | –
CC(Nc1ncnc2[nH]cnc12)c1cc2scc(C(F)(F)F)n2c(=O)c1-c1ccccc1 (centres unmarked) [Example 18, 7-(1-((9H-purin-6-yl)amino)ethyl)-6-phenyl-3-(trifluoromethyl)-5H-thiazol-[3,2-a]pyridin-5-one] | – | – | IC50 (SU-DHL-6 cell): 23 nM; IC50 (WSU-NHL): 95 nM
O=c1c(-c2cccc(F)c2)c(C(Nc2ncnc3[nH]cnc23)C2CC2)cc2scc(Cl)n12 (centres unmarked) [Example 20, 7-(((9H-purin-6-yl)amino)(cyclopropyl)methyl)-3-chloro-6-(3-fluorophenyl)-5H-thiazolo[3,2-a]pyridin-5-one] | 7.8 nM | 39 nM | –
O=c1c(-c2ccccc2)c(C(Nc2ncnc3[nH]cnc23)C2CC2)cc2scc(Cl)n12 (centres unmarked) [Example 21, 7-(((9H-purin-6-yl)amino)(cyclopropyl)-methyl)-3-chloro-6-phenyl-5H-thiazolo-[3,2-a]pyridin-5-one] | 27 nM | 20 nM | –
O=c1c(-c2cccc(F)c2)c(C(Nc2ncnc3[nH]cnc23)C2CC2)cc2scc(C(F)(F)F)n12 (centres unmarked) [Example 22, 7-(((9H-purin-6-yl)amino)(cyclopropyl)-methyl)-6-(3-fluorophenyl)-3-(trifluoromethyl)-5H-thiazolo[3,2-a]-pyridin-5-one] | 186 nM | – | –
Cc1csc2cc(C(Nc3ncnc4[nH]cnc34)C3CC3)c(-c3ccccc3)c(=O)n12 (centres unmarked) [Example 24, 7-(((9H-purin-6-yl)amino)(cyclopropyl)methyl)-3-methyl-6-phenyl-5H-thiazolo[3,2-a]pyridin-5-one] | 5.7 nM | 16 nM | –
Cc1csc2cc(C(Nc3ncnc4[nH]cnc34)C3CC3)c(-c3cccc(F)c3)c(=O)n12 (centres unmarked) [Example 25, 7-(((9H-purin-6-yl)amino)(cyclopropyl)methyl)-6-(3-fluorophenyl)-3-methyl-5H-thiazolo[3,2-a]pyridin-5-one] | 3.6 nM | 47 nM | –
Cc1nc(N)nc(NC(C)c2cc3scc(C)n3c(=O)c2-c2ccccc2)c1C#N (centres unmarked) [Example 26, 2-amino-4-methyl-6-((1-(3-methyl-5-oxo-6-phenyl-5H-thiazolo[3,2-a]pyridin-7-yl)ethyl)amino)pyrimidine-5-carbonitrile] | – | < 9 nM | –
Cc1nc(N)nc(NC(C)c2cc3scc(Cl)n3c(=O)c2-c2cccc(F)c2)c1C#N (centres unmarked) [Example 27, 2-amino-4-((1-(3-chloro-6-(3-fluorophenyl)-5-oxo-5H-thiazolo[3,2-a]pyridin-7-yl)ethyl)amino)-6-methylpyrimidine-5-carbonitrile] | – | < 9 nM | –

Now from value to compound, other results behind:

IC50 (SU-DHL-6 cell; Homo sapiens) | SMILES | IC50 (WSU-NHL; Homo sapiens) | also measured
36 nM | Cc1csc2cc(C(C)Nc3ncnc4[nH]cnc34)c(-c3ccccc3)c(=O)n12 (centres unmarked) [Example 1, 7-(1-(9H-purin-6-ylamino)ethyl)-3-methyl-6-phenyl-5H-thiazolo[3,2-a]pyridin-5-one] | – | –
103 nM | CCc1csc2cc(C(C)Nc3ncnc4[nH]cnc34)c(-c3ccccc3)c(=O)n12 (centres unmarked) [Example 9, 7-(1((9H-purin-6-yl)amino)ethyl)-3-ethyl-6-phenyl-5H-thiazolo[3,2-a]-pyridin-5-one] | – | –
8.5 nM | CC(Nc1ncnc2[nH]cnc12)c1cc2scc(Cl)n2c(=O)c1-c1ccccc1 (centres unmarked) [Example 14, 7-(1-((9H-purin-6-yl)amino)ethyl)-3-chloro-6-phenyl-5H-thiazolo[3,2-a]-pyridin-5-one] | 49 nM | –
44.8 nM | CCC(Nc1ncnc2[nH]cnc12)c1cc2scc(Cl)n2c(=O)c1-c1ccccc1 (centres unmarked) [Example 15, 7-(1-((9H-purin-6-yl)amino)propyl)-3-chloro-6-phenyl-5H-thiazolol[3,2-a]-pyridin-5-one] | – | –
4.4 nM | CC(Nc1ncnc2[nH]cnc12)c1cc2scc(C(F)(F)F)n2c(=O)c1-c1cccc(F)c1 (centres unmarked) [Example 16, 7-(1-((9H-purin-6-yl)amino)ethyl)-6-(3-fluorophenyl)-3-(trifluoromethyl)-5H-thiazolo[3,2-a]pyridin-5-one] | 87 nM | –
85 nM | CCC(Nc1ncnc2[nH]cnc12)c1cc2scc(C(F)(F)F)n2c(=O)c1-c1cccc(F)c1 (centres unmarked) [Example 17, 7-(1-((9H-purin-6-yl)amino)propyl)-6-(3-fluorophenyl)-3-(trifluoromethyl)-5H-thiazolo[3,2-a]pyridin-5-one] | – | –
17 nM | CCC(Nc1ncnc2[nH]cnc12)c1cc2scc(C(F)(F)F)n2c(=O)c1-c1ccccc1 (centres unmarked) [Example 19] | – | –
27 nM | O=c1c(-c2ccccc2)c(C(Nc2ncnc3[nH]cnc23)C2CC2)cc2scc(C(F)(F)F)n12 (centres unmarked) [Example 23, 7-(((9H-purin-6-yl)amino)(cyclopropyl)-methyl)-6-phenyl-3-(trifluoromethyl)-5H-thiazolo[3,2-a]pyridin-5-one] | – | –
